Assay results from patent US4421745A, “Antiepileptics” (Takeda Chemical Industries, Ltd., priority 1981, dated 1983).

Tests used:
[1] = test system: degenerative myoclonus epilepsy; assay: Clinical Case 1: DN-1417 treatment of epileptic patient; assay type: in vivo, human
Protocol: They were given DN-1417, 2 mg. i.m. at 10:00 A.M. every day for 2 weeks concomitantly with the prior antiepileptics.

[2] = Blood concentrations of antiepileptics in Case 3
From the text: The treatment consisted of a multiple drug therapy using phenytoin, phenobarbital, sodium valproate, nitrazepam and clonazepam.

[3] = test system: epilepsy, tuberous sclerosis (tonic convulsion and atypical absence); assay: Clinical Case 2: DN-1417 treatment of epileptic patient; assay type: in vivo, human
Protocol: In conjunction with the antiepileptic drugs so far used, DN-1417 was administered intramuscularly in doses of 0.5 mg. for 10 days and, then, in doses of 1 mg. for 4 days.

Lennox's syndrome = assay: Clinical Case 3: DN-1417 treatment of epileptic patient; assay type: in vivo, human
Protocol: During the period from July 22 to Aug. 4, 1981, 1 mg of DN-1417 was administered intramuscularly once daily for 14 consecutive days, concomitantly with the antipileptics so far employed.

[4] = test system: epilepsy (tonic convulsion, tonoclonic convulsion and clonic convulsion); assay: Clinical Case 4: DN-1417 treatment of epileptic patient; assay type: in vivo, human
Protocol: During the period from July 22 to Aug. 4, 1981, DN-1417 was administered intramuscularly in daily doses of 1 mg. for 14 days, together with the antiepileptics so far employed.

temporal lobe epilepsy = assay: Clinical Case 5: DN-1417 treatment of epileptic patient; assay type: in vivo, human
Protocol: In addition to the prior medication of antiepileptics (10 tablets of HYDANTOL F® each containing 25 mg. phenytoin, 8 mg. phenobarbital and 17 mg. caffeine and sodium benzoate, 1 g. of carbamazepine, 0.09 g. of phenobarbital and 250 mg. of actazolamide), DN-1417 was intramuscularly administered in dose of 1 mg./day for 2 weeks. […] From the 7th day of the DN-1417 treatment they began to explain their conditions as, "The time to get off the bed from awaking has been shortened." and "Became easy to get to the next action in doing anything."Improvement of such psychic symptoms was maintained for a week after the end of the DN-1417 treatment. Automatism occurred a week after the end of the DN-1417 treatment and impaired-consciousness seizure occurred twice in the 3rd week of post-treatment.

West's syndrome = assay: Clinical Case 6: DN-1417 treatment of epileptic patient; assay type: in vivo, human; conditions: for Frequency of seizure occurrences: before DN-1417
Protocol: Nitrazepam in dosage of 1.5 mg./day was administered in three divided doses to show less frequency of the seizure occurrences (from 10 times a day to 6-7 times a day). […] The drowsiness was fairly ameliorated but the frequency of the seizure occurrences was not reduced (10 times a day).
DN-1417 in dosage of 0.03 mg./kg. (0.3 mg./day) was intravenously given for 22 days in addition to the treatment with nitrazepam in dosage of 0.6 mg./day.

With O=C1CN=C(c2ccccc2Cl)c2cc([N+](=O)[O-])ccc2N1 [clonazepam, reference compound] the Myoclonus at rest ([1]; clonazepam 2 mg daily combined with other antiepileptics, before DN-1417) was “almost complete disappearance”.

For CCC1(c2ccccc2)C(=O)NC(=O)NC1=O [phenobarbital], the Blood concentration ([2]; Case 3, after 2 weeks of DN-1417 1 mg i.m. daily with the antiepileptics) was 24600 ng/mL and the Blood concentration ([2]; Case 3, multiple drug therapy before DN-1417) was 18900 ng/mL.

In the case of NC(=O)[C@@H]1CCCN1C(=O)[C@H](Cc1c[nH]cn1)NC(=O)[C@@H]1CCC(=O)O1.O=C(O)CC(O)(CC(=O)O)C(=O)O [DN-1417, (S)-γ-butyrolactone-γ-carbonyl-L-histidyl-L-prolinamide citrate], the “Time after withdrawal until photomyoclonic response reappeared” value [1] was “about 80 days”, the “Type of action from EEG changes and clinical symptoms” value [1] was “antimyoclonic action though not a definite anticonvulsive action” and the “Continuation of clinical improvement after withdrawal of the drug” value ([1]; 2 mg daily for 2 weeks) was “about 1 month”. The Side effect ([1]; 2 mg daily for 2 weeks) was “without any side effect”, the Overall clinical effect ([1]; 2 mg i.m. daily for 2 weeks with prior antiepileptics) was “effective in improving myoclonus, cerebellar symptoms, psychic activity and EEG” and the EEG ([1]; 3rd day of treatment) was “No improvement”. The “Persistence of marked EEG improvements” value ([1]; after 2nd EEG at day 8 of treatment) was “about 50 days”, the “EEG response to photic stimulation” value ([1]; day 8 of treatment) was “entirely normal” and the Overall clinical effect [3] was “remarkable improvements in daily activity and improvements in clinical episode and EEG”. The Side effect [3] was “no side effect”, the Clinical episodes ([3]; after 2 weeks) was “no clinical episodes” and the EEG ([3]; after 2 weeks, EEG at sleep) was “frequency of paroxymal patterns was halved”. For the same molecule, the Clinical episodes ([3]; i.m. 0.5 mg for 10 days then 1 mg for 4 days with prior antiepileptics, after one week) was “No clinical episodes”, the Overall clinical effect (Lennox's syndrome) was “decreased incidence of clinical episodes, improved EEG findings and remarkable improvements in daily life” and the Side effect (Lennox's syndrome) was “no side effect”. The Clinical episodes (Lennox's syndrome; 1 mg i.m. once daily for 14 days with prior antiepileptics, after one week) was “no clinical episode”, the Clinical episodes (Lennox's syndrome; after 2 weeks) was “one episode of atypical absence” and the EEG (Lennox's syndrome; after 2 weeks) was “no polyspike-and-slow wave complex and only a decreased sharp-and-slow wave complex”. For the same molecule, the EEG (Lennox's syndrome; after one week) was “decrease in polyspike-and-slow wave complex but an increase in sharp-and-slow wave complex”, the Clinical episodes (Lennox's syndrome; one week after withdrawal) was “No clinical episode” and the EEG (Lennox's syndrome; one week after withdrawal) was “less bursts, with an increased regularity of basal wave”. The “Activities of daily life and mental condition (summary)” value [4] was “A remarkable improvement”, the “Clinical seizures (summary)” value [4] was “No change or a slight improvement” and the “EEG (summary)” value [4] was “A moderate improvement”. For the same molecule, the Overall evaluation [4] was “moderate improvement”, the Side effect [4] was “no apparent side effect” and the Epileptic seizures ([4]; 1 mg i.m. daily for 14 days with prior antiepileptics, after one week) was “No epileptic seizure”. For the same molecule, the EEG ([4]; after 2 weeks) was “fair improvement in continuity, with a regularity”, the Epileptic seizures ([4]; after 2 weeks) was “No epileptic seizure” and the EEG ([4]; after one week) was “remarkable improvement”. For the same molecule, the Seizures after withdrawal ([4]; three weeks after withdrawal) was “Clonic convulsion appeared on day 6 after withdrawal”, the EEG findings (temporal lobe epilepsy) was “No noteworthy change” and the Overall clinical effect (temporal lobe epilepsy) was “effective in this patient”. For the same molecule, the “Seizures during the treatment” value (temporal lobe epilepsy; 1 mg/day i.m. for 2 weeks with prior antiepileptics) was “autonomic seizure occurred once”, the “Psychic symptoms such as decrease of volition” value (temporal lobe epilepsy; during DN-1417 treatment) was “improved” and the Overall clinical effect (West's syndrome) was “effective for West's syndrome”. The EEG (West's syndrome; 2 weeks after the DN-1417 treatment) was “did not show hypsarhythmia”, the Drowsiness (West's syndrome; after a week) was “drowsiness due to nitrazepam was reduced” and the EEG (West's syndrome; after a week) was “remained unchanged”. The Seizure frequency (West's syndrome; from the 2nd week of treatment, same at the 3rd week) was 5-6 times a day and the Side effects (West's syndrome; whole course) was “No side effects”.

For O=C1NC(=O)C(c2ccccc2)(c2ccccc2)N1 [phenytoin], the Blood concentration ([2]; in vivo) was 9000 ng/mL.

In the case of “ACTH: ACTH therapy; adrenocorticotropic hormones (SYSMEHFRWGKPVGKKRRPVKVYPNGAEDESAEAFPLEF; Corticotropin; UniProt P01189 138-176, looked up) [reference compound]”, the “Effect of ACTH therapy” value (Lennox's syndrome; before DN-1417) was “with no avail”.

With O=C1CN=C(c2ccccc2)c2cc([N+](=O)[O-])ccc2N1 [Nitrazepam, nitrazepam, reference compound] the Adverse effects (West's syndrome; nitrazepam 1.5 mg/day) was “Severe drowsiness and stridor”, the “Frequency of seizure occurrences” value (West's syndrome; nitrazepam 1.5 mg/day in three divided doses) was 6-7 times a day and the “Frequency of seizure occurrences” value (West's syndrome; nitrazepam reduced to 0.6 mg/day) was 10 times a day.

In the case of CCCC(CCC)C(=O)[O-].[Na+] [sodium valproate, reference compound], the Convulsions ([1]; after about 3 months on sodium valproate, before DN-1417) was “convulsions were inhibited”, the Myoclonus ([1]; on sodium valproate, before DN-1417) was “remained prominent” and the Blood concentration ([2]; in vivo) was 36000 ng/mL.
